One experiment concerns P388. The experiment in a line: Soft agar colony formation disk diffusion assay. The experiment is classed as cell-based, murine. The essentials: (§1)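 Read-out: zone of inhibition, disk edge to most proximal colony (>50 cells), measured by ocular micrometer at 40×. Two-layer agar, 10^4 to 2×10^5 cells per dish, drug on filter disk, 37° C., 5% CO2, 10-20 days.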
A general note: A growth-free zone around the sample is the usual read-out of agar diffusion tests.

A further experiment deals with M5076. Nature of the experiment: Soft agar colony formation disk diffusion assay. The experiment is classed as cell-based, murine. In outline:
as §1

The subject of a further experiment is B16. Nature of the experiment: Soft agar colony formation disk diffusion assay. The experiment is classed as cell-based, murine. The essentials:
as §1

The test system of a further experiment is LL. The experiment in a line: Soft agar colony formation disk diffusion assay. The experiment is classed as cell-based, murine. In outline:
as §1

The test system of the next experiment is P388/ADR. Nature of the experiment: Soft agar colony formation disk diffusion assay. The experiment is classed as cell-based, murine. In outline: as §1
In a further experiment the test system is LOX. Nature of the experiment: Microculture tetrazolium assay. The experiment is classed as cell-based. To be noted: read-out: IC50.
In the next experiment the test system is SKOV3. The experiment in a line: Microculture tetrazolium assay. The following applies: Homo sapiens, SK-OV-3, SKOV3; read-out: IC50. The experiment is classed as cell-based.
In the next experiment the test system is T47D. The experiment in a line: Microculture tetrazolium assay. The following applies: Homo sapiens, read-out: IC50. The experiment is classed as cell-based.
For experiment [1], the system named is HT29. Nature of the experiment: Soft agar colony formation disk diffusion assay. The experiment is classed as cell-based, human. The essentials: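 Cells were plated at 10^4–2×10^5 cells per dish in a 0.4% Noble agar upper layer over 0.8% agar. The compound (DMSO/water solution) was applied on a 6.5 mm filter disk, and plates were incubated at 37 °C, 5% CO2 for 10–20 days. Anti-clonogenic activity was measured microscopically as the inhibition zone from the disk edge to the nearest colonies (>50 cells).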

Experiment [2] deals with HT29. Nature of the experiment: Microculture tetrazolium assay. To be noted: Homo sapiens, HT-29, HT29; read-out: IC50. The experiment is classed as cell-based.
For a further experiment, the system named is MATB.WT. Nature of the experiment: Soft agar colony formation disk diffusion assay. The experiment is classed as cell-based, rat. In outline:
as §1

For the next experiment, the system named is MATB/ADR. The experiment in a line: Soft agar colony formation disk diffusion assay. The experiment is classed as cell-based, rat. In outline: as §1

Molecules are shown by their SMILES. Where only a bound is given, the exact number is not on record here.

Usually IC50 stands for the concentration needed to halve the response being measured. In the case of `COC(=O)[C@H]1CC2=C(C(=O)c3c(cc4ccccc4c3O)C2=O)[C@H](O[C@H]2C[C@H](NC(=O)C(F)(F)F)[C@H](O)[C@H](C)O2)O1` (mixture of isomers) [BCH-692, (1'S,1S,3R) and (1'S,1R,3S) Methyl[11-hydroxy-1-(2',3',6'-trideoxy-3'-trifluoroacetamido-4'-hydroxy-L-lyxohexopyranose)-5,12-dioxo-3,4,5,12-tetrahydro-anthraceno[2,3-c]pyran-3-yl]formate], the zone of inhibition amounted to 50.5 ± 10.9 Zone Units in the experiment with P388 (10 μg/DISK); 180.0 ± 50.6 Zone Units in the experiment with P388 (100 μg/DISK); 50.0 ± 25.5 Zone Units with M5076 (10 μg/DISK); 200.0 ± 100.0 Zone Units with M5076 (100 μg/DISK); 0 Zone Units in the experiment with B16 (10 μg/DISK); 200.0 ± 55.0 Zone Units with B16 (100 μg/DISK). In addition, the zone of inhibition came out at 80.5 ± 20.5 Zone Units with LL (10 μg/DISK); 140.3 ± 40.5 Zone Units in the experiment on LL (100 μg/DISK); 25.0 ± 10.0 Zone Units in the experiment on P388/ADR (10 μg/DISK); 150.5 ± 50.0 Zone Units in the experiment on P388/ADR (100 μg/DISK); 105.0 ± 5.0 Zone Units in the experiment with HT29 [1] (10 μg/DISK); 150.0 ± 18.5 Zone Units with MATB.WT (10 μg/DISK). Further, the zone of inhibition in the experiment on MATB.WT (100 μg/DISK) was determined as 400.5 ± 100.0 Zone Units; in the experiment on MATB/ADR (10 μg/DISK) it was 0 Zone Units; in the experiment on MATB/ADR (100 μg/DISK), 180.0 ± 50.5 Zone Units. The half-maximal inhibitory concentration (IC50) with LOX turned out to be 3.89 µM; in the experiment with SKOV3, 2.84 µM; in the experiment with T47D it was 71 µM; with HT29 [2], 2.18 µM.

As for `CCOC(=O)C1CC2=C(CO1)C(=O)c1c(cc3ccccc3c1O)C2=O` (stereo not drawn) [BCH-651, Ethyl(6 and 11 hydroxy-5,12-dioxo-3,4,5,12-tetrahydro-anthraceno[2,3-c]pyran-3-yl)]formate], the zone of inhibition is given as 45.7 ± 12.9 Zone Units in the experiment with P388 (10 μg/DISK); 294.5 ± 101.1 Zone Units with P388 (100 μg/DISK); 15.2 ± 4.3 Zone Units in the experiment with M5076 (10 μg/DISK); 51.3 ± 43.3 Zone Units in the experiment on M5076 (100 μg/DISK); 0 Zone Units in the experiment with B16 (10 μg/DISK); 27.5 ± 13.4 Zone Units with B16 (100 μg/DISK). The zone of inhibition with LL (100 μg/DISK) was determined as 27.4 ± 4.3 Zone Units; with P388/ADR (10 μg/DISK), 10.0 ± 0.0 Zone Units; in the experiment on P388/ADR (100 μg/DISK) it was 30.5 ± 8.6 Zone Units; in the experiment with HT29 [1] (10 μg/DISK), 0 Zone Units; in the experiment on HT29 [1] (100 μg/DISK), 61.0 ± 1.0 Zone Units; in the experiment with MATB.WT (10 μg/DISK), 0 Zone Units. The figures for the zone of inhibition in the experiment on MATB.WT (100 μg/DISK), in the experiment on MATB/ADR (10 μg/DISK) and in the experiment on MATB/ADR (100 μg/DISK) were 36.6 ± 8.6 Zone Units, 0 Zone Units and 100.0 Zone Units, respectively. In addition, the IC50 amounted to 22.1 µM with LOX, 20.8 µM with SKOV3, 36.3 µM in the experiment on T47D and 17 µM in the experiment on HT29 [2].

In the case of `CCOC(=O)C1CC2=C(CO1)C(=O)c1c(c(O)c3ccccc3c1OC(C)=O)C2=O` (stereo not drawn) [BCH-654, Ethyl[11-acetoxy-6-hydroxy-5,12-dioxo-3,4,5,12-tetrahydroanthraceno(2,3-c)pyran-3-yl]formate], the zone of inhibition turned out to be 0 Zone Units in the experiment on P388 (10 μg/DISK); 0 Zone Units in the experiment on P388 (100 μg/DISK); 0 Zone Units with M5076 (10 μg/DISK); 0 Zone Units with M5076 (100 μg/DISK); 0 Zone Units in the experiment with B16 (10 μg/DISK); 137.4 ± 21.8 Zone Units in the experiment with B16 (100 μg/DISK). For the same compound, the zone of inhibition worked out at 0 Zone Units with LL (100 μg/DISK); 0 Zone Units in the experiment with P388/ADR (10 μg/DISK); 0 Zone Units in the experiment with P388/ADR (100 μg/DISK); 0 Zone Units in the experiment on HT29 [1] (10 μg/DISK); 106.5 ± 21.9 Zone Units with HT29 [1] (100 μg/DISK); 0 Zone Units in the experiment on MATB.WT (10 μg/DISK). In addition, the zone of inhibition is 152.5 ± 25.8 Zone Units in the experiment on MATB.WT (100 μg/DISK), 0 Zone Units with MATB/ADR (10 μg/DISK) and 134.3 ± 17.3 Zone Units with MATB/ADR (100 μg/DISK). In addition, the IC50 in the experiment on LOX was 70.5 µM; in the experiment with SKOV3, 98.4 µM; with T47D, above 100 µM; with HT29 [2] it was 47.3 µM.

The values are drawn from patent publication US5593970A, “Heterocyclic anthracycline analogs” (priority 1994, dated 1997).
